Results reported in patent US8378117B2 (priority 2005, dated 2013).
Where two headings read alike, the source gives them in different places.

What was measured:
CB2 receptor = target: T1, CB2 receptor (Homo sapiens, UniProt P34972); assay: Binding assay for CB2 agonists or inverse agonists (SK-N-MC membranes, [3H]-CP-55,940); conditions: for inhibition at 1 µM: read-out: CB2 receptor binding percent inhibition
T1 construct: expressed in transfected cells
Procedure: (§1) The human CB1 and CB2 receptors were stably expressed in SK-N-MC cells transfected with pcDNA3 CB-1 (human) or pcDNA3 CB-2 (human). The cells were grown in T-180 cell culture flasks under standard cell culture conditions at 37° C. in a 5% CO2 atmosphere. The cells were harvested by trysinization and homogenized in a homogenization buffer (10 mM Tris, 0.2 mM MgCl2, 5 mM KCl, with protease inhibitors aprotinin, leupeptin, pepstatin A and bacitracin) and centrifuged (2000 g). The supernatant was then centrifuged in 2M sucrose (31,300 g) to produce a semi-purified membrane pellet. The pellet was resuspended in homogenization and stored at −80° C.
On the day of the assay, the pellet was thawed on ice and diluted in assay buffer (50 mM Tris-HCl, 5 mM MgCl2, 2.5 mM EDTA, 0.5 mg/mL fatty acid free bovine serum aldumin, pH 7.5). […] The plate was covered and incubated for 90 minutes at 30° C. The contents were then aspirated onto a Packard Unifilter GF/C filter bottom plate prewet with 0.5% polyethyleneimine. The wells of the polypropylene plate were rinsed and aspirated seven times with a 0.9% saline-0.5% Tween 20 solution. The Unifilter plate was dried, a scintillation cocktail was added to each well and the counts representing binding were quantitated in a TopCount scintillation counter.
(§2) For compounds tested, an IC50 binding value was obtained from percent inhibition studies in which various test concentrations were used. The binding value was calculated by linear regression.

CB1 receptor = target: T2, CB1 receptor (Homo sapiens, UniProt P21554); assay: Binding assay for CB1 agonists or inverse agonists (SK-N-MC membranes, [3H]-CP-55,940); conditions: for IC50: Cannabinoid CB1 Receptor Binding IC50, calculated by linear regression from percent inhibition at various test concentrations
T2 construct: expressed in transfected cells
T2 sequence (P21554 whole entry): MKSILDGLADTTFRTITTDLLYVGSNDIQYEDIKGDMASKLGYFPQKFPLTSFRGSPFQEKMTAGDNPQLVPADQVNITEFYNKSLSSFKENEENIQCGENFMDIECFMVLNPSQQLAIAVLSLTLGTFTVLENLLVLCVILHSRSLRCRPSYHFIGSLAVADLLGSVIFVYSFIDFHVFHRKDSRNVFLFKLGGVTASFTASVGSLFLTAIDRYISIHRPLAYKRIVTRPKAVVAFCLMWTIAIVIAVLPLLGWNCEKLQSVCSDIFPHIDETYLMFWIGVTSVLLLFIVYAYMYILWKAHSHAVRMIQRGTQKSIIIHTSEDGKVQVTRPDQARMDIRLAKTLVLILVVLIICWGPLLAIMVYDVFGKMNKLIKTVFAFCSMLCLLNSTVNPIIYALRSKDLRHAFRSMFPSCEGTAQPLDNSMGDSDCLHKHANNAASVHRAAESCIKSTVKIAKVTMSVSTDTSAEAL
Procedure: as §1
On the day of the assay, the pellet was thawed on ice and diluted in assay buffer (50 mM Tris-HCl, 5 mM MgCl2, 2.5 mM EDTA, 0.5 mg/mL fatty acid free bovine serum aldumin, pH 7.5). The diluted membrane pellet was added with buffer, either a test compound or vehicle standard and the radioligand […] ([…]) to the wells of a 96-well polypropylene plate. Non-specific binding was measured in wells containing WIN 55,212 (10 uM). The plate was covered and incubated for 90 minutes at 30° C. The contents were then aspirated onto a Packard Unifilter GF/C filter bottom plate prewet with 0.5% polyethyleneimine. The wells of the polypropylene plate were rinsed and aspirated seven times with a 0.9% saline-0.5% Tween 20 solution. The Unifilter plate was dried, a scintillation cocktail was added to each well and the counts representing binding were quantitated in a TopCount scintillation counter.
as §2

[1] = read-out: CB1 receptor binding percent inhibition, test concentration 1 μM (footnote 1)
[2] = calculated by linear regression from percent inhibition at various test concentrations, read-out: Cannabinoid CB2 Receptor Binding IC50
[3] = test concentration 1 μM (footnote 1)

T1 sequence (P34972 whole entry): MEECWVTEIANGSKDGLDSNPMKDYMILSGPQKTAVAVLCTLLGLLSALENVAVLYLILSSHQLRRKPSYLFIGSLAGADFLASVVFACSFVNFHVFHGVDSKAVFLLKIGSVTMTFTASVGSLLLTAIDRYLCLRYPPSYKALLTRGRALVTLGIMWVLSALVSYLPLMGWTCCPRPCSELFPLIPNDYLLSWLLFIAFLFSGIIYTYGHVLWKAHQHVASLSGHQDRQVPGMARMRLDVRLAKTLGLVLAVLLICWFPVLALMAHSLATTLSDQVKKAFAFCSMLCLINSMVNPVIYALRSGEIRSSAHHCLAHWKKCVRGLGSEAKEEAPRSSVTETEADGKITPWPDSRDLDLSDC

SMILES | CB2 receptor binding percent inhibition (CB2 receptor; test concentration not stated) [%] | inhibition at 1 µM (CB1 receptor; [1]) [%] | also measured
O=C(NC12CC3CC(CC(C3)C1)C2)c1nn(C2CCCCC2)c2c1CCCCC2Cc1ccc(Cl)cc1 (centres unmarked) [Cpd 20, 8-(4-chloro-benzyl)-1-cyclohexyl-1,4,5,6,7,8-hexahydro-cycloheptapyrazole-3-carboxylic acid adamantan-1-ylamide] | 28 | 4 | –
O=C(NC12CC3CC(CC(C3)C1)C2)c1nn(C2CCCCC2)c2c1CCCCC2Cc1ccccc1Cl (centres unmarked) [Cpd 21, 8-(2-chloro-benzyl)-1-cyclohexyl-1,4,5,6,7,8-hexahydro-cycloheptapyrazole-3-carboxylic acid adamantan-1-ylamide] | 26 | 32 | –
O=C(NC12CC3CC(CC(C3)C1)C2)c1nn(-c2ccc(Cl)cc2Cl)c2c1CCCCC2Cc1cccc(Cl)c1 (centres unmarked) [Cpd 22, 8-(3-chloro-benzyl)-1-(2,4-dichloro-phenyl)-1,4,5,6,7,8-hexahydro-cycloheptapyrazole-3-carboxylic acid adamantan-1-ylamide] | 25 | 58 | –
O=C(NC1CCC1)c1nn(C2CCCCC2)c2c1CCCCC2Cc1ccccc1Cl (centres unmarked) [Cpd 23, 8-(2-chloro-benzyl)-1-cyclohexyl-1,4,5,6,7,8-hexahydro-cycloheptapyrazole-3-carboxylic acid cyclobutylamide] | 24 | 0 | –
O=C(NC1CCC1)c1nn(-c2ccc(Cl)cc2Cl)c2c1CCCCC2Cc1cccc(Cl)c1 (centres unmarked) [Cpd 24, 8-(3-chloro-benzyl)-1-(2,4-dichloro-phenyl)-1,4,5,6,7,8-hexahydro-cycloheptapyrazole-3-carboxylic acid cyclobutylamide] | 0 | 28 | –
O=C(NN1CCCCC1)c1nn(-c2ccc(Cl)cc2Cl)c2c1CCCCC2Cc1ccc(Cl)cc1 (centres unmarked) [Cpd 27, 8-(4-chloro-benzyl)-1-(2,4-dichloro-phenyl)-1,4,5,6,7,8-hexahydro-cycloheptapyrazole-3-carboxylic acid piperidin-1-ylamide] | 0 | 0 | –
O=C(NC1CCC1)c1nn(Cc2ccc(Cl)cc2)c2c1CCCCC2Cc1cccc(Cl)c1 (centres unmarked) [Cpd 29, 1-(4-chloro-benzyl)-8-(3-chloro-benzyl)-1,4,5,6,7,8-hexahydro-cycloheptapyrazole-3-carboxylic acid cyclobutylamide] | 18 | 13 | –
O=C(NC1CCC1)c1nn(Cc2ccc(Cl)cc2)c2c1CCCCC2Cc1ccc(Cl)cc1 (centres unmarked) [Cpd 30, 1,8-bis-(4-chloro-benzyl)-1,4,5,6,7,8-hexahydro-cycloheptapyrazole-3-carboxylic acid cyclobutylamide] | – | 28 | IC50 (CB2 receptor; [2]): 600 nM; inhibition at 1 µM (CB2 receptor; [3]): 65%
O=C(NC1CC1)c1nn(C2CCCCC2)c2c1CCCCC2Cc1ccccc1Cl (centres unmarked) [Cpd 31, 8-(2-chloro-benzyl)-1-cyclohexyl-1,4,5,6,7,8-hexahydro-cycloheptapyrazole-3-carboxylic acid cyclopropylamide] | 35 | 0 | –
O=C(NC1CC1)c1nn(C2CCCCC2)c2c1CCCCC2Cc1cccc(Cl)c1 (centres unmarked) [Cpd 32, 8-(3-chloro-benzyl)-1-cyclohexyl-1,4,5,6,7,8-hexahydro-cycloheptapyrazole-3-carboxylic acid cyclopropylamide] | 0 | 0 | –
O=C(NC1CC1)c1nn(C2CCCCC2)c2c1CCCCC2Cc1ccc(Cl)cc1 (centres unmarked) [Cpd 33, 8-(4-chloro-benzyl)-1-cyclohexyl-1,4,5,6,7,8-hexahydro-cycloheptapyrazole-3-carboxylic acid cyclopropylamide] | 0 | 0 | –
O=C(NC1CC1)c1nn(Cc2ccc(Cl)cc2)c2c1CCCCC2Cc1ccc(Cl)cc1 (centres unmarked) [Cpd 34, 1,8-bis-(4-chloro-benzyl)-1,4,5,6,7,8-hexahydro-cycloheptapyrazole-3-carboxylic acid cyclopropylamide] | 0 | 0 | –
O=C(NC1CC1)c1nn(Cc2ccc(Cl)cc2)c2c1CCCCC2Cc1cccc(Cl)c1 (centres unmarked) [Cpd 35, 1-(4-chloro-benzyl)-8-(3-chloro-benzyl)-1,4,5,6,7,8-hexahydro-cycloheptapyrazole-3-carboxylic acid cyclopropylamide] | 36 | 22 | –
O=C(NC1CCC1)c1nn(C2CCCCC2)c2c1CCCCC2Cc1cccc(Cl)c1 (centres unmarked) [Cpd 36, 8-(3-chloro-benzyl)-1-cyclohexyl-1,4,5,6,7,8-hexahydro-cycloheptapyrazole-3-carboxylic acid cyclobutylamide] | 0 | 25 | –
O=C(NC1CCC1)c1nn(C2CCCCC2)c2c1CCCCC2Cc1ccc(Cl)cc1 (centres unmarked) [Cpd 37, 8-(4-chloro-benzyl)-1-cyclohexyl-1,4,5,6,7,8-hexahydro-cycloheptapyrazole-3-carboxylic acid cyclobutylamide] | 10 | 15 | –
O=C(NC1CC1)c1nn(-c2ccc(Cl)cc2Cl)c2c1CCCCC2Cc1ccc(Cl)cc1 (centres unmarked) [Cpd 38, 8-(4-chloro-benzyl)-1-(2,4-dichloro-phenyl)-1,4,5,6,7,8-hexahydro-cycloheptapyrazole-3-carboxylic acid cyclopropylamide] | 0 | 39 | –
Cn1nc(C(=O)NC2CCC2)c2c1C(Cc1ccccc1Cl)CCCC2 (centres unmarked) [Cpd 39, 8-(2-chloro-benzyl)-1-methyl-1,4,5,6,7,8-hexahydro-cycloheptapyrazole-3-carboxylic acid cyclobutylamide] | 30 | 0 | –
O=C(NC1CCC1)c1nn(C2CCCCC2)c2c1CCCCC2Cc1cccc(F)c1 (centres unmarked) [Cpd 43, 1-cyclohexyl-8-(3-fluoro-benzyl)-1,4,5,6,7,8-hexahydro-cycloheptapyrazole-3-carboxylic acid cyclobutylamide] | 42 | 14 | –
CC12CCC(C1)C(C)(C)[C@H]2NC(=O)c1nn(C2CCCCC2)c2c1CCCCC2Cc1cccc(F)c1 (stereo partly drawn) [Cpd 44, 1-cyclohexyl-8-(3-fluoro-benzyl)-1,4,5,6,7,8-hexahydro-cycloheptapyrazole-3-carboxylic acid [(2S)-1,3,3-trimethyl-bicyclo[2.2.1]hept-2-yl]-amide] | – | – | IC50 (CB2 receptor; [2]): 600 nM; inhibition at 1 µM (CB2 receptor; [3]): 75%; IC50 (CB1 receptor): 200 nM; inhibition at 1 µM (CB1 receptor; read-out: CB1 receptor binding percent inhibition): 82%
CC(C)(C)OC(=O)N1CCC(NC(=O)c2nn(C3CCCCC3)c3c2CCCCC3Cc2cccc(F)c2)CC1 (centres unmarked) [Cpd 46, 4-{[1-cyclohexyl-8-(3-fluoro-benzyl)-1,4,5,6,7,8-hexahydro-cycloheptapyrazole-3-carbonyl]-amino}-piperidine-1-carboxylic acid tert-butyl ester] | 0 | 45 | –
CC12CCC(C1)C(C)(C)[C@H]2NC(=O)c1nn(Cc2ccccc2)c2c1CCCCC2c1ccccc1 (stereo partly drawn) [Cpd 47, 1-benzyl-8-phenyl-1,4,5,6,7,8-hexahydro-cycloheptapyrazole-3-carboxylic acid [(2S)-1,3,3-trimethyl-bicyclo[2.2.1]hept-2-yl]-amide] | – | 91 | IC50 (CB2 receptor; Cannabinoid CB2 Receptor Binding IC50, calculated by linear regression from percent inhibition at various test concentrations): 30 nM; CB2 receptor binding percent inhibition (CB2 receptor; [3]): 94%; IC50 (CB1 receptor): 100 nM
O=C(NC1CC1)c1nn(C2CCCCC2)c2c1CCCCC2Cc1cccc(F)c1 (centres unmarked) [Cpd 49, 1-cyclohexyl-8-(3-fluoro-benzyl)-1,4,5,6,7,8-hexahydro-cycloheptapyrazole-3-carboxylic acid cyclopropylamide] | 9 | 33 | –
O=C(NN1CCCCC1)c1nn(C2CCCCC2)c2c1CCCCC2Cc1cccc(F)c1 (centres unmarked) [Cpd 50, 1-cyclohexyl-8-(3-fluoro-benzyl)-1,4,5,6,7,8-hexahydro-cycloheptapyrazole-3-carboxylic acid piperidin-1-ylamide] | 31 | 32 | –
O=C(NC1CCCCC1)c1nn(C2CCCCC2)c2c1CCCCC2Cc1cccc(F)c1 (centres unmarked) [Cpd 51, 1-cyclohexyl-8-(3-fluoro-benzyl)-1,4,5,6,7,8-hexahydro-cycloheptapyrazole-3-carboxylic acid cyclohexylamide] | 30 | 36 | –
